# PMC5183552 (Neuropharmacology, 2016)
# Like-named read-outs stand apart in the source and are kept apart here.
# Key:
# mouse A2AAR [1] = target: T1, mouse A2AAR (Mus musculus, UniProt Q60613); conditions: read-out: Ki, mouse A2AAR, 2006, cited from earlier work
# mice [2] = assay: Body temperature; type: in vivo, mouse
# mouse A3AR [3] = target: T2, mouse A3AR (Mus musculus, UniProt Q61618); assay: Radioligand binding, recombinant mouse A3AR in HEK-293 membranes
# T2 sequence (Q61618 1-319): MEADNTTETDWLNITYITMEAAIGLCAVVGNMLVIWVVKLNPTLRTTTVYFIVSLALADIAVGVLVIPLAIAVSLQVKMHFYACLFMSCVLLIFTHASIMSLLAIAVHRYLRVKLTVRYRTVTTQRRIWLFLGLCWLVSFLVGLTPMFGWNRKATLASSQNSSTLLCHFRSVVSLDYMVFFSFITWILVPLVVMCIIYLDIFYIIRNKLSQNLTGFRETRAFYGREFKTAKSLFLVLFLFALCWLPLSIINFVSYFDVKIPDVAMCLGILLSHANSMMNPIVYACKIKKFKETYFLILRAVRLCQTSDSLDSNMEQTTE
# mice [4] = assay: Temperature gradient; type: in vivo, mouse
# mouse = conditions: 0.5 mg/kg, ref Luongo et al, 2012; cited from earlier work
# Human A2AAR [5] = target: T3, Human A2AAR (Homo sapiens, UniProt P29274); conditions: read-out: Ki, human A2AAR, cited from earlier work
# mice [6] = assay: Indirect calorimetry; type: in vivo, mouse; conditions: i.p.
# mouse A1AR [7] = target: T4, mouse A1AR (Mus musculus, UniProt Q60612); assay: Radioligand binding, recombinant mouse A1AR in HEK-293 membranes
# T4 sequence (Q60612 1-326): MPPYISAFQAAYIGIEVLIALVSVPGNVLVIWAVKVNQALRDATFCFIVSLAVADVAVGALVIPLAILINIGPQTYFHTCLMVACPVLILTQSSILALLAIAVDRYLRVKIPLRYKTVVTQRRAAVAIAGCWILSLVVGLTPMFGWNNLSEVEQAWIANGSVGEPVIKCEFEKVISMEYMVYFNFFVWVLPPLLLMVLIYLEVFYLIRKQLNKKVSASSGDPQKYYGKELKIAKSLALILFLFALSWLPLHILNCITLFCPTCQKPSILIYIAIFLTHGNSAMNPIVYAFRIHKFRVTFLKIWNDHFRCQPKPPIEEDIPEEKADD
# Human A3AR [8] = target: T5, Human A3AR (Homo sapiens, UniProt P0DMS8); conditions: read-out: Ki, human A3AR; ref Franchetti et al, 2009; cited from earlier work
# T5 sequence (P0DMS8 1-318): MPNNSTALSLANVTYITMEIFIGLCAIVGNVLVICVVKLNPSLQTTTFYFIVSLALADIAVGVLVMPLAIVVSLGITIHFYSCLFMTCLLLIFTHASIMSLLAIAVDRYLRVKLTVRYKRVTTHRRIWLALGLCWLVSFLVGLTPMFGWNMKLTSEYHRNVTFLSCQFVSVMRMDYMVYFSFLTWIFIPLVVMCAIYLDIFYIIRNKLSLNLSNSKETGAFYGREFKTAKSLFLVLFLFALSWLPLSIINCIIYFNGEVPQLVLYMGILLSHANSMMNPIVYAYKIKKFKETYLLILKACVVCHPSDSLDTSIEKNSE
# mouse A1AR [9] = target: T4, mouse A1AR; conditions: read-out: Ki, mouse A1AR, cited from earlier work
# mouse A3AR [10] = target: T2, mouse A3AR; conditions: cited from earlier work
# [11] = 500–3500 mg/kg, i.p.; ref Zhang et al, 2006; cited from earlier work
# mouse A2AAR [12] = target: T1, mouse A2AAR; assay: Radioligand binding, recombinant mouse A2AAR in HEK-293 membranes; conditions: read-out: % inhibition at 10 µM, mouse A2AAR
# Human A1AR = target: T6, Human A1AR (Homo sapiens, UniProt P30542); assay: Ligand binding affinity at human A1AR
# T6 sequence (P30542 1-326): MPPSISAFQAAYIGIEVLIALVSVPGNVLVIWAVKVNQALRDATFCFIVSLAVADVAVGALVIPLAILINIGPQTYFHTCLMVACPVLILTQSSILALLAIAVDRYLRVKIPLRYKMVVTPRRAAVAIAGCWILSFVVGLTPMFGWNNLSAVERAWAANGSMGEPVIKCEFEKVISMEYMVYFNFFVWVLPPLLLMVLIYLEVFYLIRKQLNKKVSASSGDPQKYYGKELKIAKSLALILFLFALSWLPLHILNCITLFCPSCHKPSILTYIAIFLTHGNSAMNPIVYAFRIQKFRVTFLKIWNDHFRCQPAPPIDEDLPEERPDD
# Human A3AR [13] = target: T5, Human A3AR; assay: Ligand binding affinity at human A3AR
# Human A2AAR [14] = target: T3, Human A2AAR; assay: Ligand binding affinity at human A2AAR
# [15] = 3 mg/kg, i.p., raclopride 1 mg/kg, data not shown
# [16] = C57BL/6J mice, 0.3–10 mg/kg, i.p.
# [17] = Adora3−/− mice, 3 mg/kg, before the Tb nadir
# [18] = C57BL/6J mice, 0.03–3 mg/kg, i.p.
# [19] = C57BL/6J mice, 100 µg/mouse (~3.3 mg/kg), i.c.v.
# [20] = C57BL/6J mice, 0.02–0.2 mg/kg, i.p., dose-dependent
# T3 sequence (P29274 whole entry): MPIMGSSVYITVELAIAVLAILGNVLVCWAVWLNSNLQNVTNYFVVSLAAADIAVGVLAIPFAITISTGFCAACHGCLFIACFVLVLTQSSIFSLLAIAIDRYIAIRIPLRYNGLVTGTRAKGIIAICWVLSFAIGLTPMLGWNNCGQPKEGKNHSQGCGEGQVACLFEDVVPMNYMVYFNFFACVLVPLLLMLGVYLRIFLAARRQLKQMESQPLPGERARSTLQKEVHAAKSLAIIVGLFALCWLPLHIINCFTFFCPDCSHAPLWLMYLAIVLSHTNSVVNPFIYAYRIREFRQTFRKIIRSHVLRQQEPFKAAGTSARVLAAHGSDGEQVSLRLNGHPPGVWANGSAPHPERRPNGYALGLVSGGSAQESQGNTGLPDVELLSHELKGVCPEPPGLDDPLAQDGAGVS
# T1 sequence (Q60613 whole entry): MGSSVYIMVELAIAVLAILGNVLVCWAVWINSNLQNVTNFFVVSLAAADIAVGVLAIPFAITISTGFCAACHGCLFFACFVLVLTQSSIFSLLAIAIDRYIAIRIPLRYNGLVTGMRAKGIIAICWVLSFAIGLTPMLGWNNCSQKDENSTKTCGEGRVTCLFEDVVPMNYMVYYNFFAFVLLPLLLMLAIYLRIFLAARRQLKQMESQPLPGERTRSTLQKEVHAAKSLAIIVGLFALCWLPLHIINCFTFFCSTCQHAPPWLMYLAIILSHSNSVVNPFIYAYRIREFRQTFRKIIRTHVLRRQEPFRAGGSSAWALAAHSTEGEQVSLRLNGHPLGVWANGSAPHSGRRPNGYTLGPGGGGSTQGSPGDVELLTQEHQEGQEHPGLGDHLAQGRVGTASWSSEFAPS
compound,measurement,setting,value
"CNC(=O)[C@H]1O[C@@H](n2cnc3c(NCc4cccc(I)c4)nc(Cl)nc32)[C@H](O)[C@@H]1O [Cl-IB-MECA, 2-chloro-N6-(3-iodobenzyl)adenosine-5'-N-methylcarboxamide]",Ki,mouse A2AAR [1]; ref Ge et al,~10000 nM
"COc1ccc(CN(CCN(C)C)c2ccccn2)cc1 [Pyrilamine, pyrilamine]",Effect of H1R antagonist on MRS5474-induced hypothermia,"mice [2]; MRS5474 at dose selective for A3AR, inhibitor dosed 15 min before agonist",inhibited hypothermia
same,Effect of H1R antagonist on A1AR agonist-induced hypothermia,"mice [2]; inhibitor dosed 15 min before agonist, Fig. S4A–D",did not block
"O[C@@H]1[C@H](O)[C@@H](CCl)O[C@H]1n1cnc2c(NC3CC4CCC3C4)ncnc21 (mixture of isomers) [Cl-ENBA, (±)-5'-chloro-5'-deoxy-N^6-endo-norbornyladenosine]",Ki,"mouse A3AR [3]; read-out: Ki, mouse A3AR, current results, ±SEM",2410 ± 325 nM
same,Environmental temperature preference in thermal gradient,"mice [4]; Adora3−/− mice, 3 mg/kg, i.p.",modest preference for a cooler place
same,Anti-nociceptive effect,mouse,anti-nociceptive
same,Ki,"Human A2AAR [5]; ref Franchetti et al, 2009",1340 nM
same,Effect of i.c.v. dosing on Tb in Adora1−/− mice,"mice [2]; 15 µg/mouse, i.c.v.",greatly diminished
same,Hypothermia in mast cell-deficient Kit W-sh/W-sh mice,"mice [2]; 1 mg/kg, i.p.",largely intact
same,Hypothermia in Adora1−/− mice vs wild type,"mice [2]; 3 mg/kg, i.p.",largely abolished
same,Hypothermia in Adora1−/−;Adora3−/− mice,"mice [2]; 3 mg/kg, i.p.",completely lost
same,Hypothermia in Adora3−/− mice vs wild type,"mice [2]; 3 mg/kg, i.p.",remained present
same,Hypothermia in mast cell-deficient Kit W-sh/W-sh mice,"mice [2]; 3 mg/kg, i.p.",significantly attenuated
same,Hypothermia after pretreatment with raclopride,mice [2]; [15],not affected
same,Effect on Tb,mice [2]; [16],dose-dependent hypothermia
same,Effect on physical activity,mice [2]; [16],hypoactivity
same,Time of TEE nadir,"mice [6]; Adora3−/− mice, 3 mg/kg",~ 50 min
same,Time of Tb nadir,"mice [6]; Adora3−/− mice, 3 mg/kg",~ 100 min
same,Effect on metabolic rate (total energy expenditure),mice [6]; [17],reduced metabolic rate
same,Effect on physical activity,mice [6]; [17],reduced
same,Ki,"mouse A1AR [7]; read-out: Ki, mouse A1AR, current results, ±SEM",0.2 ± 0.01 nM
same,Ki,Human A3AR [8],1290 nM
CNC(=O)[C@H]1O[C@@H](n2cnc3c(NCc4cccc(I)c4)ncnc32)[C@H](O)[C@@H]1O [IB-MECA],Ki,mouse A2AAR [1]; ref Ge et al,~1000 nM
"OC[C@H]1O[C@@H](n2cnc3c(NC4CCCC4)nc(Cl)nc32)[C@H](O)[C@@H]1O [CCPA, 2-chloro-N^6-cyclopentyladenosine]",Ki,"mouse A1AR [9]; ref Alnouri et al, 2015",0.27 nM
same,Ki,"mouse A3AR [10]; read-out: Ki, mouse A3AR, ref Alnouri et al, 2015",16 nM
CCNC(=O)[C@H]1O[C@@H](n2cnc3c(N)nc(NCCc4ccc(CCC(=O)O)cc4)nc32)[C@H](O)[C@@H]1O [CGS21680],Ki,mouse A3AR [3],48 ± 11 nM
same,Ki,mouse A1AR [7],193 ± 38 nM
"OC[C@H]1O[C@@H](n2cnc3c(NC4CCCC4)ncnc32)[C@H](O)[C@@H]1O [CPA, N^6-cyclopentyladenosine]",Hypothermia in Adora1−/− mice vs wild type,"mice [2]; 0.3 mg/kg, i.p.",not significantly attenuated
same,Hypothermia in Adora3−/− mice vs wild type,"mice [2]; 0.3 mg/kg, i.p.",attenuated but still present
same,Effect on Tb,mice [2]; [18],"dose-dependent (0.03–3 mg/kg, i.p.) hypothermia"
same,Effect on physical activity,mice [2]; [18],reduction in physical activity
"Nc1ncnc2c1ncn2[C@@H]1O[C@H](COP(=O)(O)O)[C@@H](O)[C@H]1O [AMP, adenosine 5'-monophosphate]",Ambient temperature preference,"mice [4]; 100 mg/kg, i.p., not shown",did not observe a clear change
same,Activity in thermal gradient,mice [4]; [19],without a significant drop in activity
same,Activity in thermal gradient,"mice [4]; C57BL/6J mice, 300 mg/kg, i.p.",became immobile
same,Position in thermal gradient,"mice [4]; C57BL/6J mice, 300 mg/kg, i.p.",moved to a cooler region
same,Torpor induction by large doses,[11],induce torpor
same,Hypothermia from i.c.v. dosing in Adora1−/− mice,"mice [2]; 100 µg/mouse (~3.3 mg/kg), i.c.v.",not attenuated
same,Hypothermia in Adora1−/− mice,"mice [2]; 100 mg/kg, i.p.",intact
same,Hypothermia in Adora1−/−;Adora3−/− double knockout mice,"mice [2]; 100 mg/kg, i.p.",intact
same,Hypothermia in Adora3−/− mice,"mice [2]; 100 mg/kg, i.p.",intact
same,Hypothermia in Kit W-sh/W-sh mice,"mice [2]; 100 mg/kg, i.p.",partially intact
same,Hypothermia after pretreatment with raclopride,"mice [2]; AMP 100 mg/kg, i.p., raclopride 2 mg/kg, data not shown",did not block
same,Hypothermia after pretreatment with pyrilamine,"mice [2]; Adora1−/− mice, AMP 100 mg/kg, i.p., pyrilamine 10 mg/kg, data not shown",did not ablate
same,"Effect on Tb, i.c.v. infusion",mice [2]; [19],drop in Tb that was comparable to a 30-fold larger (100 mg/kg) systemic dose
same,Effect on metabolic rate (total energy expenditure),"mice [6]; C57BL/6J mice, 100 mg/kg",drop in metabolic rate that preceded the hypothermia
same,Time of TEE nadir,"mice [6]; C57BL/6J mice, 100 mg/kg",~ 40 min
same,Time of Tb nadir,"mice [6]; C57BL/6J mice, 100 mg/kg",~ 60 min
"O[C@@H]1[C@@H]2C[C@@H]2C(n2cnc3c(NC(C4CC4)C4CC4)nc(Cl)nc32)[C@@H]1O (stereo partly drawn) [MRS5474, (1R,2R,3S,5S)-4-(2-chloro-6-((dicyclopropylmethyl)amino)-9H-purin-9-yl)bicyclo[3.1.0]hexane-2,3-diol]",Ki,"Human A2AAR [5]; ref Tosh et al, 2012b",3950 nM
same,Receptor mediating hypothermia (Adora1−/− and Adora3−/− mice),"mice [2]; 3 mg/kg, i.p.","via A3AR, without a clear contribution from A1AR"
same,Hypothermia after pretreatment with raclopride,mice [2]; [15],not inhibited
same,Effect on Tb,"mice [2]; mice, doses in Fig. S2A,B",dose-dependent hypothermia
same,Effect on physical activity,"mice [2]; mice, doses in Fig. S2A,B and data not shown",hypoactivity
CCCn1c(=O)c2[nH]c(C3CCCC3)nc2n(CCC)c1=O [DPCPX],Ki,mouse A2AAR [1]; ref Kreckler et al,598 nM
same,Ki,"mouse A1AR [9]; ref Kreckler et al, 2006",1.5 nM
same,"% inhibition at 10 µM, mouse A3AR","mouse A3AR [10]; 10 µM, ref Kreckler et al, 2006",0%
"OC[C@H]1O[C@@H](n2cnc3c(NC4CCCCC4)ncnc32)[C@H](O)[C@@H]1O [CHA, N^6-cyclohexyladenosine]",Hypothermia in Adora1−/− mice vs wild type,"mice [2]; 0.05 mg/kg, i.p.",attenuated
same,Hypothermia in Adora1−/−;Adora3−/− double knockout mice,"mice [2]; 0.05 mg/kg, i.p.",completely lost
same,Hypothermia in Adora3−/− mice vs wild type,"mice [2]; 0.05 mg/kg, i.p.",attenuated
same,Effect on Tb,mice [2]; [20],drop in Tb
same,Effect on duration of hypothermia,mice [2]; [20],increase in duration of hypothermia
same,Effect on physical activity,mice [2]; [20],reduced physical activity
same,Ki,mouse A1AR [7],2.15 ± 0.37 nM
"O=S(=O)(O)c1ccc(Nc2ncnc3c2ncn3[C@@H]2O[C@H](CO)[C@@H](O)[C@H]2O)cc1 [SPA, N^6-(p-sulfo-phenyl)adenosine]",inhibition at 10 µM,mouse A2AAR [12],33 ± 2%
same,Ki,mouse A3AR [3],3110 ± 183 nM
same,Ki,Human A1AR,7.92 ± 1.55 nM
same,Ki,Human A3AR [13],246 ± 21 nM
same,Ki,Human A2AAR [14],3780 ± 890 nM
same,Ki,mouse A1AR [7],1.08 ± 0.04 nM
same,Selectivity for binding to mouse A1AR over A3AR,mouse A1AR [7]; from Table 1 Ki values,~ 3000 fold
